Laboratory results as given in the supplement of paper PMC11061612.

How the values were obtained:
[1] = compound: C=CCn1c(=O)c2cnc(Nc3ccc(N4CCN(C)CC4)cc3)nc2n1-c1cccc(C(C)(C)O)n1 [AZD1775]; details: max 3 µM
Outline: (§1)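 In 1536-well plates, cancer cell lines in 7.5 μl DMEM/F12 or RPMI with 10% FBS spent 24 hours at 37°C and 5% CO2 and were then dosed for 72 hours with final DMSO typically 0.2%. Viability was read by CellTiter-Glo 2.0 luminescence and scaled between blank-well and DMSO-well means. The single-agent IC50 was fitted from dose responses using a logistic curve in a non-linear mixed effects model, and that logistic curve had two parameters.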

[2] = compound: N#Cc1cnc(Nc2cc(NC[C@H]3CNCCO3)c(C(F)(F)F)cn2)cn1 [SRA737]; details: max 10 µM
Outline: as §1

[3] = compound: CS(=O)(=O)CCNCc1ccc(-c2ccc3ncnc(Nc4ccc(OCc5cccc(F)c5)c(Cl)c4)c3c2)o1 [Lapatinib]; details: max 10 µM
Outline: as §1

[4] = compound: CN(CC[C@H](CSC1=CC=CC=C1)NC2=C(C=C(C=C2)S(=O)(=O)NC(=O)C3=CC=C(C=C3)N4CCC(CC4)[C@H](C5=CC=CC=C5C6=CC=C(C=C6)Cl)O)S(=O)(=O)C(F)(F)F)CCO [AZD4320]; details: max 1 µM
Outline: as §1

[5] = compound: CCc1c2c(nc3ccc(O)cc13)-c1cc3c(c(=O)n1C2)COC(=O)[C@]3(O)CC [SN-38]; details: max 0.3 µM
Outline: as §1

[6] = compound: C1CC(C1)(C(=O)[O-])C(=O)[O-].N.N.[Pt+2] [Carboplatin]; details: max 10 µM
Outline: as §1

[7] = compound: COc1cc2ncnc(Nc3ccc(F)c(Cl)c3)c2cc1OCCCN1CCOCC1 [Gefitinib]; details: max 10 µM
Outline: as §1

[8] = compound: CC(=O)c1c(C)c2cnc(Nc3ccc(N4CCNCC4)cn3)nc2n(C2CCCC2)c1=O [Palbociclib]; details: max 10 µM
Outline: as §1

[9] = compound: CC1=C(C(=CC=C1)Cl)NC(=O)C2=CN=C(S2)NC3=CC(=NC(=N3)C)N4CCN(CC4)CCO [Dasatinib]; details: max 2 µM
Outline: as §1

[10] = compound: CC(=O)Nc1cccc(-n2c(=O)n(C3CC3)c(=O)c3c(Nc4ccc(I)cc4F)n(C)c(=O)c(C)c32)c1 [Trametinib]; details: max 1 µM
Outline: as §1

[11] = compound: C1CN(CCC1(C(=O)N[C@@H](CCO)C2=CC=C(C=C2)Cl)N)C3=NC=NC4=C3C=CN4 [AZD5363]; details: max 10 µM
Outline: as §1

[12] = compound: COc1nnc2ccc(N3CCC(c4ccc(OCCN5CCN(C)C(=O)[C@H]5C)cc4)CC3)nn12 [AZD5153]; details: max 1 µM
Outline: as §1

[13] = compound: NC1(c2ccc(-c3nc4ccn5c(=O)[nH]nc5c4cc3-c3ccccc3)cc2)CCC1 [MK-2206]; details: max 10 µM
Outline: as §1

[14] = compound: CC(C)n1c(=O)n(C)c2cnc3cc(F)c(-c4ccc(OCCCN5CCCCC5)nc4)cc3c21 [AZD1390]; details: max 0.3 µM
Outline: as §1

[15] = compound: O=C(c1cc(Cc2n[nH]c(=O)c3ccccc23)ccc1F)N1CCN(C(=O)C2CC2)CC1 [Olaparib]; details: max 10 µM
Outline: as §1

[16] = compound: O=C(Nc1ccc2[nH]nc(-c3ccncc3)c2c1)[C@@H]1CCN(CC(=O)N2CCN(c3ccc(-c4ncccn4)cc3)CC2)C1; details: max 5 µM
Outline: as §1

[17] = compound: C[C@@H](c1ccc2nccn2c1)n1nnc2ncc(-c3cnn(C)c3)nc21 [Savolitinib]; details: max 1 µM
Outline: as §1

[18] = compound: Cn1cnc2c(F)c(Nc3ccc(Br)cc3Cl)c(C(=O)NOCCO)cc21 [Selumetinib]; details: max 10 µM
Outline: as §1

[19] = compound: COc1cc([C@@H]2c3cc4c(cc3[C@@H](O[C@@H]3O[C@@H]5CO[C@@H](C)O[C@H]5[C@H](O)[C@H]3O)[C@H]3COC(=O)[C@H]23)OCO4)cc(OC)c1O [Etoposide]; details: max 10 µM
Outline: as §1

[20] = compound: C[C@@H](Oc1cc(-c2cnn(C3CCNCC3)c2)cnc1N)c1c(Cl)ccc(F)c1Cl [Crizotinib]; details: max 10 µM
Outline: as §1

[21] = compound: Cc1cc2ncnn2cc1Nc1ncc2c(n1)n(C1CCOCC1)c(=O)n2C [AZD7648]; details: max 10 µM
Outline: as §1

[22] = compound: CCN(CCO)CCCOc1ccc2c(Nc3cc(CC(=O)Nc4cccc(F)c4)[nH]n3)ncnc2c1 [AZD2811]; details: max 1 µM
Outline: as §1

[23] = compound: Nc1ccn([C@@H]2O[C@H](CO)[C@@H](O)C2(F)F)c(=O)n1 [Gemcitabine]; details: max 0.3 µM
Outline: as §1

[24] = compound: CC1(C)CCC(CN2CCN(c3ccc(C(=O)NS(=O)(=O)c4ccc(NCC5CCOCC5)c([N+](=O)[O-])c4)c(Oc4cnc5[nH]ccc5c4)c3)CC2)=C(c2ccc(Cl)cc2)C1 [Venetoclax]; details: max 1 µM
Outline: as §1

[25] = compound: COc1cccc2c1C(=O)c1c(O)c3c(c(O)c1C2=O)C[C@@](O)(C(=O)CO)C[C@@H]3O[C@H]1C[C@H](N)[C@H](O)[C@H](C)O1 [Doxorubicin]; details: max 1 µM
Outline: as §1

[26] = compound: C[C@@H](Nc1cc(F)cc(F)c1)c1cc(C(=O)N(C)C)cc2c(=O)cc(N3CCOCC3)oc12 [AZD8186]; details: max 10 µM
Outline: as §1

[27] = compound: COc1cccc(OCCCN)c1-c1cc(Nc2cnc(C#N)cn2)n[nH]1 [Prexasertib]; details: max 1 µM
Outline: as §1

[28] = compound: CC1=CN2[C@@H](C1)C=NC3=CC(=C(C=C3C2=O)OC)OCCCCCOC4=C(C=C5C(=C4)N=C[C@@H]6CC(=CN6C5=O)C)OC [SG3199]; details: max 0.001 µM
Outline: as §1

[29] = compound: COc1cc(Nc2ncc3c(n2)-c2ccc(Cl)cc2C(c2c(F)cccc2OC)=NC3)ccc1C(=O)O [Alisertib]; details: max 10 µM
Outline: as §1

[30] = compound: Cc1c2c(nn1C)CSCc1cc(n(C)n1)CSc1cc(c3ccccc3c1)OCCCc1c(C(=O)O)n(C)c3c-2c(Cl)ccc13 [AZD5991]; details: max 1 µM
Outline: as §1

[31] = compound: CN(C)CCCOc1ccc(-c2ccc3ncc4c(c3c2)n(C2CCOCC2)c(=O)n4C)cn1 [AZD0156]; details: max 3 µM
Outline: as §1

[32] = compound: CC(=O)O[C@H]1C(=O)[C@@]2(C)[C@H]([C@H](OC(=O)c3ccccc3)[C@]3(O)C[C@H](OC(=O)[C@H](O)[C@@H](NC(=O)c4ccccc4)c4ccccc4)C(C)=C1C3(C)C)[C@]1(OC(C)=O)CO[C@@H]1C[C@@H]2O [Paclitaxel]; details: max 3 µM
Outline: as §1

[33] = compound: O=c1[nH]cc(F)c(=O)[nH]1 [5-Fluorouracil]; details: max 20 µM
Outline: as §1

[34] = compound: Cc1nc(-c2cn3c(n2)-c2ccc(-c4cnn(C(C)(C)C(N)=O)c4)cc2OCC3)n(C(C)C)n1 [Taselisib]; details: max 10 µM
Outline: as §1

[35] = compound: C[C@@H]1COCCN1C2=NC(=NC(=C2)C3(CC3)[S@](=N)(=O)C)C4=C5C=CNC5=NC=C4 [AZD6738]; details: max 10 µM
Outline: as §1

| Cell Line | IC50, cell viability 72 h [1] [µM] | IC50, cell viability 72 h [2] [µM] | IC50, cell viability 72 h [3] [µM] | IC50, cell viability 72 h [4] [µM] | IC50, cell viability 72 h [5] [µM] | IC50, cell viability 72 h [6] [µM] | IC50, cell viability 72 h [7] [µM] | IC50, cell viability 72 h [8] [µM] | IC50, cell viability 72 h [9] [µM] | IC50, cell viability 72 h [10] [µM] | IC50, cell viability 72 h [11] [µM] | IC50, cell viability 72 h [12] [µM] | IC50, cell viability 72 h [13] [µM] | IC50, cell viability 72 h [14] [µM] | IC50, cell viability 72 h [15] [µM] | IC50, cell viability 72 h [16] [µM] | IC50, cell viability 72 h [17] [µM] | IC50, cell viability 72 h [18] [µM] | IC50, cell viability 72 h [19] [µM] | IC50, cell viability 72 h [20] [µM] | IC50, cell viability 72 h [21] [µM] | IC50, cell viability 72 h [22] [µM] | IC50, cell viability 72 h [23] [µM] | IC50, cell viability 72 h [24] [µM] | IC50, cell viability 72 h [25] [µM] | IC50, cell viability 72 h [26] [µM] | IC50, cell viability 72 h [27] [µM] | IC50, cell viability 72 h [28] [µM] | IC50, cell viability 72 h [29] [µM] | IC50, cell viability 72 h [30] [µM] | IC50, cell viability 72 h [31] [µM] | IC50, cell viability 72 h [32] [µM] | IC50, cell viability 72 h [33] [µM] | IC50, cell viability 72 h [34] [µM] | IC50, cell viability 72 h [35] [µM] |
| --- | --- | --- | --- | --- | --- | --- | --- | --- | --- | --- | --- | --- | --- | --- | --- | --- | --- | --- | --- | --- | --- | --- | --- | --- | --- | --- | --- | --- | --- | --- | --- | --- | --- | --- | --- |
| MFH-ino (Other Solid Carcinomas) | > 3 | > 10 | > 10 | > 1 | 0.0398 | > 10 | > 10 | > 10 | > 2 | > 1 | > 10 | > 1 | > 10 | > 0.3 | > 10 | 3.67 | > 1 | > 10 | > 10 | > 10 | > 10 | > 1 | 0.0717 | > 1 | > 1 | > 10 | > 1 | > 0.001 | > 10 | > 1 | > 3 | 1.27 | > 20 | > 10 | > 10 |
| NALM-6 (B-Lymphoblastic Leukemia) | 0.509 | 2.31 | 8.22 | 0.146 | 0.00589 | > 10 | > 10 | 1.41 | 1.14 | > 1 | 1.37 | 0.0319 | 0.816 | > 0.3 | > 10 | > 5 | > 1 | > 10 | 0.302 | 1.17 | > 10 | 0.057 | 0.00363 | 0.38 | 0.106 | 1.22 | 0.0117 | > 0.001 | 0.238 | > 1 | > 3 | 0.00565 | > 20 | 0.293 | 1.05 |
